Results: patent US7745495B2, “Pyridine ketones with herbicidal effect” (Syngenta Crop Protection, Inc., priority 2004, dated 2010)

What was measured:
Format in all cases: in vivo
[1] = tested on: Stellaria; assay: Pre-emergence herbicidal action; details: 250 g/ha; after 3 weeks; rating 10=total damage, 0=no action
Experimental: (§1) Monocotyledonous and dicotyledonous test plants are sown in standard soil in plastic pots. Immediately after sowing, the test compounds, in the form of an aqueous suspension (prepared from a 25% wettable powder (Example F3, b) according to WO 97/34485) or in the form of an emulsion (prepared from a 25% emulsifiable concentrate (Example F1, c)), are applied by spraying a concentration corresponding to 125 g or 250 g of active ingredient/ha (500 liter of water/ha). The test plants are then grown in a greenhouse under optimum conditions. After a test duration of 3 weeks, the test is evaluated in accordance with a scale of ten ratings (10=total damage, 0=no action). Ratings of from 10 to 7 (especially from 10 to 8) indicate good to very good herbicidal action.

[2] = tested on: Chenopodium; assay: Pre-emergence herbicidal action; details: 250 g/ha; after 3 weeks; rating 10=total damage, 0=no action
Experimental: as §1

[3] = tested on: Soya; assay: Pre-emergent herbicidal activity on crop plant; details: crop plant, rating 10=total damage, 0=no action; for Pre-emergent Herbicidal Activity: Soja: Table B5
Experimental: (§2) Monocotyledonous and dicotyledonous test plants are sown in standard soil in plastic pots. […] The test plants are then grown in a greenhouse under optimum conditions. After a test duration of 3 weeks, the test is evaluated in accordance with a scale of ten ratings (10=total damage, 0=no action). Ratings of from 10 to 7 (especially from 10 to 8) indicate good to very good herbicidal action.
(§3) In the following Table B3, the pre-emergent herbicidal activity of compound H-14 according to the invention is compared with 4 compounds according to the prior art. All compounds are structurally identical except for the nature of the alkylene linker attached to the pyridine ring.

[4] = tested on: Corn; assay: Pre-emergent herbicidal activity on crop plant; details: crop plant, rating 10=total damage, 0=no action; for Pre-emergent Herbicidal Activity: Mais: Table B5
Experimental: as §2, §3

[5] = tested on: Digitaria; assay: Post-emergence herbicidal action; details: 250 g/ha; 4- to 6-leaf stage; after about 18 days; rating 10=total damage, 0=no action
Experimental: (§4) In a greenhouse, monocotyledonous and dicotyledonous test plants are grown in standard soil in plastic pots and at the 4- to 6-leaf stage are sprayed with an aqueous suspension of the test compounds of formula I prepared from a 25% wettable powder (Example F3, b) according to WO 97/34485) or with an emulsion of the test compounds of formula I prepared from a 25% emulsifiable concentrate (Example F1, c) according to WO 97/34485), in a concentration corresponding to 125 g or 250 g of active ingredient/ha (500 liter of water/ha). The test plants are then grown on in a greenhouse under optimum conditions. After a test duration of about 18 days, the test is evaluated in accordance with a scale of ten ratings (10=total damage, 0=no action). Ratings of from 10 to 7 (especially from 10 to 8) indicate good to very good herbicidal action.

[6] = tested on: Sinapis; assay: Post-emergence herbicidal action; details: 250 g/ha; 4- to 6-leaf stage; after about 18 days; rating 10=total damage, 0=no action
Experimental: as §4

[7] = tested on: Panicum; assay: Post-emergence herbicidal action; details: 250 g/ha; 4- to 6-leaf stage; after about 18 days; rating 10=total damage, 0=no action
Experimental: as §4

[8] = tested on: Stellaria; assay: Post-emergence herbicidal action; details: 250 g/ha; 4- to 6-leaf stage; after about 18 days; rating 10=total damage, 0=no action
Experimental: as §4

[9] = tested on: Ipomea; assay: Post-emergence herbicidal action; details: 250 g/ha; 4- to 6-leaf stage; after about 18 days; rating 10=total damage, 0=no action
Experimental: as §4

[10] = tested on: Setaria; assay: Post-emergence herbicidal action; details: 250 g/ha; 4- to 6-leaf stage; after about 18 days; rating 10=total damage, 0=no action
Experimental: as §4

[11] = tested on: Abutilon; assay: Post-emergence herbicidal action; details: 250 g/ha; 4- to 6-leaf stage; after about 18 days; rating 10=total damage, 0=no action
Experimental: as §4

[12] = tested on: Chenopodium; assay: Post-emergence herbicidal action; details: 250 g/ha; 4- to 6-leaf stage; after about 18 days; rating 10=total damage, 0=no action
Experimental: as §4

[13] = tested on: Digitaria; assay: Pre-emergence herbicidal action; details: rating 10=total damage, 0=no action
Experimental: as §2

[14] = tested on: Amaranthus; assay: Pre-emergence herbicidal action; details: rating 10=total damage, 0=no action
Experimental: as §2

[15] = tested on: Panicum; assay: Pre-emergence herbicidal action; details: rating 10=total damage, 0=no action; for Pre-emergent Herbicidal Activity: Panicum: Table B4
Experimental: as §2

[16] = tested on: Echinochloa; assay: Pre-emergence herbicidal action; details: rating 10=total damage, 0=no action
Experimental: as §2

[17] = tested on: Abutilon; assay: Pre-emergence herbicidal action; details: rating 10=total damage, 0=no action
Experimental: as §2

[18] = tested on: Brachiaria; assay: Pre-emergent herbicidal activity; details: rating 10=total damage, 0=no action
Experimental: as §2, §3

[19] = tested on: Setaria; assay: Pre-emergent herbicidal activity; details: Table B3, rating 10=total damage, 0=no action
Experimental: as §2, §3

[20] = tested on: Xanthium; assay: Pre-emergent herbicidal activity; details: Table B4, rating 10=total damage, 0=no action
Experimental: as §2
In the following Table B4, the pre-emergent herbicidal activity of compound H-3 according to the invention is compared with compound D according to the prior art. Both compounds are structurally identical except for the length of the alkylene linker attached to the pyridine ring.

[21] = tested on: Scirpus; assay: Pre-emergent herbicidal activity; details: Table B5, rating 10=total damage, 0=no action
Experimental: as §2
In the following Table B5, the pre-emergent herbicidal activity of compound H-9 according to the invention is compared with compound E according to the prior art. Both compounds are structurally identical except for the length of the alkylene linker attached to the pyridine ring.

Compound: COCCCc1nc(C(F)(F)F)ccc1C(=O)C1C(=O)C2CCC(C2)C1=O (stereo not shown) [Compound H-14, 3-[6-trifluoromethyl-2-(3-methoxy-propyl)-pyridine-3-carbonyl]-bicyclo[3.2.1]octane-2,4-dione]
- Pre-emergence herbicidal action: Stellaria [1]: 8
- Pre-emergence herbicidal action: Chenopodium [2]: 10
- Pre-emergent Herbicidal Activity: Soya ([3]; Table B3, 15 g/ha): 1
- Pre-emergent Herbicidal Activity: Soya ([3]; Table B3, 30 g/ha): 3
- Pre-emergent Herbicidal Activity: Corn ([4]; Table B3, 15 g/ha): 0
- Pre-emergent Herbicidal Activity: Corn ([4]; Table B3, 30 g/ha): 0
- Post-emergence herbicidal action: Digitaria [5]: 9
- Post-emergence herbicidal action: Sinapis [6]: 10
- Post-emergence herbicidal action: Panicum [7]: 10
- Post-emergence herbicidal action: Stellaria [8]: 10
- Post-emergence herbicidal action: Ipomea [9]: 10
- Post-emergence herbicidal action: Setaria [10]: 10
- Post-emergence herbicidal action: Abutilon [11]: 10
- Post-emergence herbicidal action: Chenopodium [12]: 10
- Pre-emergence herbicidal action: Digitaria ([13]; 250 g/ha, after 3 weeks): 10
- Pre-emergence herbicidal action: Amaranthus ([14]; 250 g/ha, after 3 weeks): 10
- Pre-emergent Herbicidal Activity: Amaranthus ([14]; Table B3, 15 g/ha): 7
- Pre-emergent Herbicidal Activity: Amaranthus ([14]; Table B3, 30 g/ha): 7
- Pre-emergence herbicidal action: Panicum ([15]; 250 g/ha, after 3 weeks): 10
- Pre-emergence herbicidal action: Echinochloa ([16]; 250 g/ha, after 3 weeks): 10
- Pre-emergent Herbicidal Activity: Echinochloa ([16]; Table B3, 15 g/ha): 9
- Pre-emergent Herbicidal Activity: Echinochloa ([16]; Table B3, 30 g/ha): 10
- Pre-emergence herbicidal action: Abutilon ([17]; 250 g/ha, after 3 weeks): 10
- Pre-emergent Herbicidal Activity: Abutilon ([17]; Table B3, 15 g/ha): 9
- Pre-emergent Herbicidal Activity: Abutilon ([17]; Table B3, 30 g/ha): 10
- Pre-emergent Herbicidal Activity: Brachiaria ([18]; Table B3, 15 g/ha): 7
- Pre-emergent Herbicidal Activity: Brachiaria ([18]; Table B3, 30 g/ha): 8
- Pre-emergent Herbicidal Activity: Setaria ([19]; 15 g/ha): 9
- Pre-emergent Herbicidal Activity: Setaria ([19]; 30 g/ha): 10

Compound: COCc1nc(C(F)F)ccc1C(=O)C1C(=O)C2CCC(C2)C1=O (stereo not shown) [D, reference compound]
- Pre-emergent Herbicidal Activity: Xanthium ([20]; 30 g/ha): 0
- Pre-emergent Herbicidal Activity: Xanthium ([20]; 60 g/ha): 0
- Pre-emergent Herbicidal Activity: Soya ([3]; Table B4, 30 g/ha): 2
- Pre-emergent Herbicidal Activity: Soya ([3]; Table B4, 60 g/ha): 3
- Pre-emergent Herbicidal Activity: Corn ([4]; Table B4, 30 g/ha): 0
- Pre-emergent Herbicidal Activity: Corn ([4]; Table B4, 60 g/ha): 0
- Pre-emergent Herbicidal Activity: Digitaria ([13]; Table B4, 30 g/ha): 7
- Pre-emergent Herbicidal Activity: Digitaria ([13]; Table B4, 60 g/ha): 9
- Pre-emergent Herbicidal Activity: Amaranthus ([14]; Table B4, 30 g/ha): 7
- Pre-emergent Herbicidal Activity: Amaranthus ([14]; Table B4, 60 g/ha): 7
- Pre-emergent Herbicidal Activity: Panicum ([15]; 30 g/ha): 8
- Pre-emergent Herbicidal Activity: Panicum ([15]; 60 g/ha): 9
- Pre-emergent Herbicidal Activity: Echinochloa ([16]; Table B4, 30 g/ha): 5
- Pre-emergent Herbicidal Activity: Echinochloa ([16]; Table B4, 60 g/ha): 7
- Pre-emergent Herbicidal Activity: Abutilon ([17]; Table B4, 30 g/ha): 6
- Pre-emergent Herbicidal Activity: Abutilon ([17]; Table B4, 60 g/ha): 9

Compound: COCc1nc(C(F)(F)Cl)ccc1C(=O)C1C(=O)C2CCC(C2)C1=O (stereo not shown) [E, reference compound]
- Pre-emergent Herbicidal Activity: Soja ([3]; 30 g/ha): 2
- Pre-emergent Herbicidal Activity: Soja ([3]; 60 g/ha): 4
- Pre-emergent Herbicidal Activity: Mais ([4]; 30 g/ha): 0
- Pre-emergent Herbicidal Activity: Mais ([4]; 60 g/ha): 0
- Pre-emergent Herbicidal Activity: Digitaria ([13]; Table B5, 30 g/ha): 6
- Pre-emergent Herbicidal Activity: Digitaria ([13]; Table B5, 60 g/ha): 6
- Pre-emergent Herbicidal Activity: Amaranthus ([14]; Table B5, 30 g/ha): 5
- Pre-emergent Herbicidal Activity: Amaranthus ([14]; Table B5, 60 g/ha): 7
- Pre-emergent Herbicidal Activity: Echinochloa ([16]; Table B5, 30 g/ha): 8
- Pre-emergent Herbicidal Activity: Echinochloa ([16]; Table B5, 60 g/ha): 9
- Pre-emergent Herbicidal Activity: Abutilon ([17]; Table B5, 30 g/ha): 0
- Pre-emergent Herbicidal Activity: Abutilon ([17]; Table B5, 60 g/ha): 0
- Pre-emergent Herbicidal Activity: Brachiaria ([18]; Table B5, 30 g/ha): 0
- Pre-emergent Herbicidal Activity: Brachiaria ([18]; Table B5, 60 g/ha): 0
- Pre-emergent Herbicidal Activity: Scirpus ([21]; 30 g/ha): 9
- Pre-emergent Herbicidal Activity: Scirpus ([21]; 60 g/ha): 9
